From paper PMC7790160 (Journal of pharmaceutical sciences, 2020)

Legend:
NSCLC cell lines = assay: Cytotoxicity assay, statements across cell lines; format: cell-based
HCC827 [1] = assay: Cytotoxicity assay; format: cell-based; conditions: HCC827, 48 h, single agent; no unit printed in Table 3 (b74 gives μM)
[2] = cited from earlier work
[3] = test system: HCC827–4 μM (Acquired 4 μM ERL Resistant); assay: Cytotoxicity assay; format: cell-based; conditions: 48 h, single agent, no unit printed in Table 3 (b74 gives μM)
H1299 (p53 mutated) = assay: Cytotoxicity assay; format: cell-based; conditions: H1299, 48 h, single agent
[4] = test system: H1975-CL1 (EGFR G796D mutation rociletinib resistant); assay: Cytotoxicity assay; format: cell-based; conditions: H1975 CL1, 48 h, single agent; no unit printed in Table 3 (b74 gives μM)
HCC827 [5] = assay: Apoptosis assay; format: cell-based; conditions: 12 μM ERL, 2 μM CDODA-Me alone or in combination, 48 h
[6] = test system: H1975 (T790M EGFR ERL Resistant); assay: Cytotoxicity assay; format: cell-based; conditions: H1975, 48 h, single agent; no unit printed in Table 3 (b74 gives μM)
total EGFR = assay: Western blot analysis of total EGFR; format: cell-based; conditions: all cell lines, 48 h
[7] = test system: HCC827-Cl4 (T790M EGFR ERL Resistant); assay: Cytotoxicity assay; format: cell-based; conditions: HCC827-CL4, 48 h, single agent; no unit printed in Table 3 (b74 gives μM)
H460 (KRAS mutated) = assay: Cytotoxicity assay; format: cell-based
total MET = assay: Western blot analysis of total MET; format: cell-based; conditions: all cell lines, 48 h
HCC827–4μM = assay: Apoptosis assay; format: cell-based; conditions: 12 μM ERL alone or with 2 μM CDODA-Me, 48 h
HCC827–4 μM = assay: Clonogenic assay; format: cell-based; conditions: 12 μM ERL, 48 h, reseeded, p < 0.001
H1975 = assay: Apoptosis assay; format: cell-based; conditions: 12 μM ERL alone or with 2 μM CDODA-Me, 48 h
H1975-CL1 = assay: Apoptosis assay; format: cell-based; conditions: 12 μM ERL alone or with 2 μM CDODA-Me, 48 h
HCC827 [8] = assay: Clonogenic assay; format: cell-based; conditions: 12 μM ERL, 48 h, reseeded, p < 0.001
p-MET = assay: Western blot analysis of p-MET; format: cell-based; conditions: 12 μM ERL alone or with 2 μM CDODA-Me, 48 h
H460 [9] = assay: Apoptosis assay; format: cell-based; conditions: 12 μM ERL alone or with 2 μM CDODA-Me, 48 h
p-EGFR = assay: Western blot analysis of p-EGFR; format: cell-based; conditions: 48 h
HCC827-CL4 = assay: Apoptosis assay; format: cell-based; conditions: 12 μM ERL alone or with 2 μM CDODA-Me, 48 h
[10] = test system: EGFR mutated non–small cell lung cancer; conditions: patients harboring exon 19 deletion / exon 21 EGFR mutations; cited from earlier work
H460 [11] = assay: Clonogenic assay; format: cell-based; conditions: 12 μM ERL, 48 h, reseeded, p < 0.001

`COC(=O)[C@@]1(C)CC[C@]2(C)CC[C@]3(C)C(=CC(=O)[C@@H]4[C@@]5(C)C=C(C#N)C(=O)C(C)(C)[C@@H]5CC[C@]43C)[C@@H]2C1` [CDODA-Me, Methyl 2-cyano-3, 11-dioxo-18b-olean-1, 12-dien-30-oate] showed a cell viability (NSCLC cell lines; 2 μM, all cell lines) of less than 20%, an IC20 (NSCLC cell lines; resistant HCC827 cells) of 2 µM and an IC50 (HCC827 [1]) of 4.5 ± 1.6 µM. The “permeability (classification)” value [2] was “high permeability”, the “solubility (classification)” value [2] was “low solubility” and the IC50 [3] was 4.4 ± 1.3 µM. For the same compound, the IC50 (H1299 (p53 mutated)) was 5.4 ± 2.4 µM, the IC50 [4] was 6.6 ± 1.1 µM and the apoptotic cells (HCC827 [5]) was “approximately 21.68 ± 1.8%”. The IC50 [6] was 6.2 ± 1.64 µM, the “total EGFR expression” value (total EGFR) was “no effect” and the IC50 [7] was 5.7 ± 2.04 µM. For the same compound, the IC50 (H460 (KRAS mutated); H460, 48 h, single agent, no unit printed in Table 3 (b74 gives μM)) was 5.5 ± 0.8 µM and the “total MET expression” value (total MET) was “no effect”.

For `C#Cc1cccc(Nc2ncnc3cc(OCCOC)c(OCCOC)cc23)c1` [ERL, erlotinib], the apoptotic cells (HCC827–4μM) was 11 ± 2.9%, the colony formation (HCC827–4 μM) was “decreased colony formation” and the apoptotic cells (H1975) was 15 ± 3.7%. For the same compound, the apoptotic cells (H1975-CL1) was 9 ± 2.7%, the apoptotic cells (HCC827 [5]) was roughly 64.23 ± 1.7% and the colony formation (HCC827 [8]) was “decreased colony formation”. For the same compound, the “expression of p-MET” value (p-MET; H1975-CL1, p < 0.001) was “decreased p-MET expression”, the “expression of p-MET” value (p-MET; H1975, p < 0.01) was “decreased p-MET expression” and the “expression of p-MET” value (p-MET; HCC827-CL4, p < 0.01) was “decreased p-MET expression”. The apoptotic cells (H460 [9]) was 5 ± 4.3%, the p-EGFR expression (p-EGFR; H1975-CL1, 12 μM ERL alone or with 2 μM CDODA-Me) was “not significant” and the P-EGFR expression (p-EGFR; HCC827, 12 μM ERL (p < 0.01) or 12 μM ERL + 2 μM CDODA-Me (p < 0.05)) was “significantly decreased”. The IC50 (H460 (KRAS mutated); Homo sapiens, NCI-H460, 48 h) was 16.3 ± 1.2 µM, the apoptotic cells (HCC827-CL4) was 8 ± 2.5% and the “patients with decreased tumor volume” value [10] was 70%. The colony formation (H460 [11]) was “decreased colony formation”.
